In brackets after ≈: the same amount, converted by molar mass.
system: HIV-2 (ROD); experiment: Inhibition of HIV-2 syncytium formation in CEM cells; format: cell-based; details: CEM cells, syncytium formation, day four post infection
In short: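 Human T-lymphoblast CEM cells, suspended at roughly 300,000 cells per ml of culture medium, were infected with about 100 CCID50 of HIV-2 (ROD). Aliquots of 100 μl of infected cells were placed in 200 μl microtiter wells holding 100 μl of serial 5-fold compound dilutions, and syncytium formation was scored microscopically four days after infection.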

SMILES	EC50 (ug/ml) HIV-2 [µg/mL]
COc1ccc(Br)c(CS(=O)(=O)c2cccc[n+]2[O-])c1 [Compound 31]	9.0 (≈ 25.1 µM)
O=[N+]([O-])c1cc(CS(=O)(=O)c2cccc[n+]2[O-])cc([N+](=O)[O-])c1 [Compound 65]	3.5 (≈ 10.3 µM)
COc1ccc(C=C(C#N)Sc2cccc[n+]2[O-])cc1 [Compound 159]	>20
Cc1cc(CS(=O)(=O)c2cccc[n+]2[O-])ccc1[N+](=O)[O-] [Compound 66]	2.5 (≈ 8.11 µM)
CC(C)c1cc(CS(=O)(=O)c2cccc[n+]2[O-])c(C(C)C)cc1Br [Compound 63]	2.5 (≈ 6.06 µM)
Cc1ccc[n+]([O-])c1S(=O)(=O)Cc1ccccc1Cl [Compound 117]	>4.0
O=S(=O)(Cc1cccc(F)c1)c1cccc[n+]1[O-] [Compound 28]	7.5 (≈ 28.1 µM)
COc1ccc(OC)c(CS(=O)(=O)c2cccc[n+]2[O-])c1 [Compound 47]	35.0 (≈ 113 µM)

same assay, conditions: protection of CEM cells against virus-induced cytopathicity at the concentration in the previous column

SMILES	HIV-2 % Protection [%]
COc1ccc(C=C(C#N)Sc2cccc[n+]2[O-])cc1 [Compound 159]	25.0
Cc1ccc[n+]([O-])c1S(=O)(=O)Cc1ccccc1Cl [Compound 117]	0.0

system: HIV-1 (IIIB); experiment: microbe, parasite or virus in culture; format: cell-based; details: CEM cells, syncytium formation, day four post infection
In short: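 Human T-lymphoblast CEM cells at roughly 300,000 cells per ml were infected with about 100 CCID50 of HIV-1 (IIIB). Then 100 μl of the infected suspension went into 200 μl microtiter wells holding 100 μl of 5-fold serial compound dilutions. Inhibition of syncytium formation was scored microscopically on day four post infection, and protection against virus-induced cytopathicity was recorded.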

SMILES	EC50 (ug/ml) HIV-1 [µg/mL]
COc1ccc(Br)c(CS(=O)(=O)c2cccc[n+]2[O-])c1 [Compound 31]	4.00 (≈ 11.2 µM)
O=[N+]([O-])c1cc(CS(=O)(=O)c2cccc[n+]2[O-])cc([N+](=O)[O-])c1 [Compound 65]	2.80 (≈ 8.25 µM)
COc1ccc(C=C(C#N)Sc2cccc[n+]2[O-])cc1 [Compound 159]	>20
Cc1cc(CS(=O)(=O)c2cccc[n+]2[O-])ccc1[N+](=O)[O-] [Compound 66]	3.10 (≈ 10.1 µM)
CC(C)c1cc(CS(=O)(=O)c2cccc[n+]2[O-])c(C(C)C)cc1Br [Compound 63]	2.30 (≈ 5.58 µM)
Cc1ccc[n+]([O-])c1S(=O)(=O)Cc1ccccc1Cl [Compound 117]	3.40 (≈ 11.4 µM)
O=S(=O)(Cc1cccc(F)c1)c1cccc[n+]1[O-] [Compound 28]	6.50 (≈ 24.3 µM)
COc1ccc(OC)c(CS(=O)(=O)c2cccc[n+]2[O-])c1 [Compound 47]	10.00 (≈ 32.3 µM)

same assay, conditions: protection of CEM cells against virus-induced cytopathicity at the concentration in the previous column

SMILES	HIV-1 % Protection [%]
COc1ccc(C=C(C#N)Sc2cccc[n+]2[O-])cc1 [Compound 159]	0.0

system: Davis strain CMV; experiment: Reduction of CMV-induced cytopathicity in HEL cells; format: cell-based, human cytomegalovirus (HCMV); details: HEL cells, estimate of percent protection at the concentration in the previous column
In short: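 Confluent HEL cells were infected with 100 PFU/well CMV for 1–2 h, then washed and kept in MEM with 2% FCS and test compound. EC50 is the concentration cutting virus-induced cytopathicity by 50% versus untreated control at day 7. Where cytotoxicity interfered, percent protection at the stated concentration is given.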

SMILES	Antiviral % Inhibition Davis strain CMV [%]
O=S(=O)(Cc1cccc(F)c1)c1cccc[n+]1[O-] [Compound 28]	40.0
COc1ccc(OC)c(CS(=O)(=O)c2cccc[n+]2[O-])c1 [Compound 47]	20.0

same assay, conditions: HEL cells, virus-induced cytopathicity after seven days

SMILES	Antiviral EC50 (ug/ml) Davis strain CMV [µg/mL]
COc1ccc(Br)c(CS(=O)(=O)c2cccc[n+]2[O-])c1 [Compound 31]	10.0
O=[N+]([O-])c1cc(CS(=O)(=O)c2cccc[n+]2[O-])cc([N+](=O)[O-])c1 [Compound 65]	5.0
COc1ccc(C=C(C#N)Sc2cccc[n+]2[O-])cc1 [Compound 159]	10.0
Cc1cc(CS(=O)(=O)c2cccc[n+]2[O-])ccc1[N+](=O)[O-] [Compound 66]	5.0
CC(C)c1cc(CS(=O)(=O)c2cccc[n+]2[O-])c(C(C)C)cc1Br [Compound 63]	3.7
Cc1ccc[n+]([O-])c1S(=O)(=O)Cc1ccccc1Cl [Compound 117]	12.0
O=S(=O)(Cc1cccc(F)c1)c1cccc[n+]1[O-] [Compound 28]	>20
COc1ccc(OC)c(CS(=O)(=O)c2cccc[n+]2[O-])c1 [Compound 47]	>50

From US7064139B2, “Method for treating retroviral infections” (Uniroyal Chemical Company, Inc., priority 2001, dated 2006)
